The values that follow come from PMC6470589, “Contribution of Molecular Structure to Self-Assembling and Biological Properties of Bifunctional Lipid-Like 4-(N-Alkylpyridinium)-1,4-Dihydropyridines” (Pharmaceutics, 2019).

Data set [1] is described as follows: MTT cytotoxicity assay on HT-1080 tumor cells, 72 h. The class given is cell-based, human. To be noted: human, HT-1080 fibrosarcoma cells. How it is done: (§1) Tumor cell lines HT-1080 (human connective tissue fibrosarcoma) and MH-22A (mouse hepatocarcinoma) were used. All of the cells were obtained from the American Type Culture Collection ((ATCC,) Rockville, MD, USA). HT-1080 and MH-22A cells (4 × 10^4 cell/mL) were seeded in 96-well plates in Dulbecco’s modified Eagle’s medium (DMEM) containing 10% fetal bovine serum and cultivated for 72 h at 37 °C, 5% CO2 by exposure to different compounds concentrations (100 μg/mL, 25 μg/mL, 6.25 μg/mL, and 1.56 μg/mL). Cell viability was measured using 3-(4,5-dimethylthiazol-2-yl)-2,5-diphenyl-tetrazolium bromide (MTT) assay. In brief, after incubating with compounds, the culture medium was removed and fresh medium with 0.2 mg/mL MTT was added in each well of the plate. After incubation (3 h, 37 °C, 5% CO2), the medium with MTT was removed, and 200 μL of DMSO was added at once to each sample. The samples were tested at 540 nm on a Tecan multiplate reader Infinite1000 (Tecan Austria GmbH, Salzburg, Austria). The IC50 was calculated using the program Graph Pad Prism® 3.0.

A short description of data set [2]: MTT cytotoxicity assay on MH-22A tumor cells, 72 h. The settings on record: mouse, MH-22A hepatocarcinoma cells. The class given is cell-based, mouse. The protocol:
as §1
A general note: Tetrazolium dyes change colour on reduction, which living cells bring about.

Data set [3] concerns NIH 3T3 (Mouse Swiss Albino embryo fibroblast) cells. The data set can be described thus: Basal cytotoxicity test (neutral red uptake) with estimation of LD50 from IC50. The settings on record: category by estimated LD50 (mg/kg). The class given is cell-based. The protocol: The neutral red uptake (NRU) assay was performed according to the standard protocol of Stokes modified by NICEATM-ECVAM validation study. The NRU cytotoxicity assay procedure was based on the ability of viable cells to incorporate and bind neutral red, which is a supravital dye.
NIH 3T3 (Mouse Swiss Albino embryo fibroblast) cells (9000 cells/well) were placed into 96-well plates for 24 h in DMEM medium containing 5% fetal bovine serum (FBS). Then, they were exposed to the test compound over a range of seven concentrations (1000 μg/mL, 316 μg/mL, 100 μg/mL, 31 μg/mL, 10 μg/mL, 3.0 μg/mL, and 1.0 μg/mL) for 24 h. Untreated cells were used as a control. After 24 h, the medium was removed from all plates. Then, 250 μL of neutral red (NR) solution was added (0.05 mg/mL NR in DMEM 24 h pre-incubated at 37 °C and then filtered before use through a 0.22-µm syringe filter). Plates were incubated for 3 h, and then, cells were washed three times with phosphate buffered saline (PBS). The dye within viable cells was released by extraction with a mixture of acetic acid, ethanol, and water (1:50:49). The absorbance of neutral red was measured using a spectrophotometer multiplate reader Infinite M1000 (Tecan Austria GmbH, Salzburg, Austria) at 540 nm. The optical density (OD) was calculated using the formula: OD (treated cells) × 100/OD (control cells). The IC50 values were calculated using the program Graph Pad Prism® 3.0.
Data from the in vitro tests were used for estimating the starting dose for acute oral systemic toxicity tests in rodent. The in vivo starting dose is an estimated LD50 value that is calculated by inserting the in vitro IC50 value into a regression formula: log LD50 (mM/kg) = 0.439 log IC50 (mM) + 0.621 [29]. The value is recalculated to mg/kg, and compounds are evaluated in accordance with four toxicity categories: category 1: LD50 ≤ 5 mg/kg (highly toxic); category 2: 5 < LD50 ≤ 50 mg/kg (moderately toxic); category 3: 50 < LD50 ≤ 300 mg/kg (slightly toxic); category 4: 300 < LD50 ≤ 2000 mg/kg (practically non-toxic). Using an alternative in vitro method enables comparing the possible toxicity of new compounds and selecting compounds for further study, which will vastly reduce the number of animal experiments.

Data set [4] in a line: Determination of critical aggregation concentration (CAC) by DLS. In kind it is physicochemical. To be noted: aqueous media. How it is done: The critical aggregation concentrations (CAC) of 4-(N-alkylpyridinium)-1,4-DHP derivatives were determined in aqueous media using a Zetasizer Nano S90 (Malvern Panalytical Ltd., Malvern, UK) instrument with Malvern Instruments Ltd. Software according to procedure described by Topel et al. and modified by our group. Briefly, as stock solutions of tested compounds were used, samples were prepared for self-assembling experiments. All of the subsequent samples were prepared starting from the concentrated stock solution, which was subjected to a serial two-fold dilution each time with water. The intensity values of scattered light (kcps) as a function of concentration of amphiphiles were analysed. The scattering intensities detected for amphiphile concentrations below CAC have an approximately constant value corresponding to water. The intensity starts to show a linear increase with concentration at the CAC, since the amount of nanoparticles increases in the solution. The intersection of the best-fit lines drawn through the data points is the preliminary CAC value of the compounds.

Data set [5] has as its system neuroblastoma SH-SY5Y cell line. Also noted: method as in doi:10.1016/j.crci.2013.07.003. To be noted: read-out: Calcium antagonistic properties, IC50, SH-SY5Y; cited from earlier work.
The test system of data set [6] is vascular smooth muscle A7R5 cell line. Also noted: method as in doi:10.1016/j.crci.2013.07.003. To be noted: read-out: Calcium antagonistic properties, IC50, A7R5; cited from earlier work.
The test system of data set [7] is transgenic Alzheimer's disease female mice. Also noted: method as in PMID 27345857. The settings on record: cited from earlier work.
Data set [8] concerns MH-22A (mouse hepatocarcinoma) cells. The data set can be described thus: MTT cytotoxicity assay on MH-22A tumor cells, 72 h. In kind it is cell-based. The settings on record: MTT, 72 h; ne = no effect in the tested concentration (up to 100 μg/mL). The protocol:
as §1

For data set [9], the system named is HT-1080 (human connective tissue fibrosarcoma) cells. In words: MTT cytotoxicity assay on HT-1080 tumor cells, 72 h. The class given is cell-based. To be noted: MTT, 72 h; ne = no effect in the tested concentration (up to 100 μg/mL). How it is done: as §1
The mark [10] stands for this setting: MTT, 72 h, ne = no effect in the tested concentration (up to 100 μg/mL), read-out: Cytotoxicity IC50, HT-1080.
The mark [11] stands for this setting: MTT, 72 h, ne = no effect in the tested concentration (up to 100 μg/mL), read-out: Cytotoxicity IC50, MH-22A.

Regarding `CCCCCCCCCCCC[n+]1cccc(C2C(C(=O)OCC)=C(C)NC(C)=C2C(=O)OCC)c1` [Compound 3], the IC50 at 72 h in data set [1] (setting [10]) stood at 37 ± 2 µM; in data set [2] (setting [11]), 15 ± 1 µM. The “Toxicity category from estimated LD50” value in [3] is “non-toxic”. In data set [4], the CAC was determined as 9.3 µM. Besides, the concentration for half-maximal inhibition (IC50) in data set [5] is 5 to 14 µM; in data set [6] it was 0.6 to 0.7 µM. For the same molecule, the Memory-improving anxiolytic effects entry in [7] is recorded as “memory-improving anxiolytic effects”.

As for `C#CCN1C(C)=C(C(=O)OCC)C(c2ccc[n+](CCCCCCCCCCCC)c2)C(C(=O)OCC)=C1C` [Compound 6], in data set [2] (setting [11]), the half-maximal inhibitory concentration (IC50) at 72 h was 1 to 4 µM. The values for the IC50 in [8], in data set [5] and in data set [6] were 1 ± 0.2 µM, 5 to 14 µM and 0.6 to 0.7 µM, respectively. The molecule further showed a CAC in data set [4] of 43.3 µM.

For `C#CCOC(=O)C1=C(C)NC(C)=C(C(=O)OCC#C)C1c1ccc[n+](CC)c1` [Compound 7], the 50% inhibitory concentration (IC50) at 72 h in data set [1] (as printed in the supplementary toxicity table, read-out: Cytotoxicity, IC50, HT-1080 (supplementary table, for comparison)) was determined as 1000 µM; in data set [2] (as printed in the supplementary toxicity table, read-out: Cytotoxicity, IC50, MH-22A (supplementary table, for comparison)) it was 1000 µM. For the same molecule, in data set [9], the “Cytotoxicity IC50, HT-1080” value is “did not demonstrate any cytotoxic effect and ne”. In data set [8], the “Cytotoxicity IC50, MH-22A” value is “did not demonstrate any cytotoxic effect and ne”.

As for `C#CCOC(=O)C1=C(C)NC(C)=C(C(=O)OCC#C)C1c1ccc[n+](CCCCCCCCCCCC)c1` [Compound 9], the IC50 at 72 h in data set [1] (setting [10]) and in data set [2] (setting [11]) was 1 to 4 µM in each case. In addition, the IC50 in [9] is 2 ± 0.2 µM; in [8], 1 ± 0.2 µM. Moreover, the CAC in [4] was 9.3 µM.

For orientation: IC50 means the midpoint of a concentration-inhibition curve.
